Measurements published in ChEMBL document CHEMBL5678818, “Discovery of potent SOS1 inhibitors that block RAS activation via disruption of the RAS-SOS1 interaction” (Proc Natl Acad Sci U S A, 2019).

Key:
[1] = target: AP2-associated protein kinase 1 (Homo sapiens) (UniProt Q2M2I8); assay: Inhibition of AAK1 (unknown origin) assessed as residual activity at 100 nM by KINOMEscan analysis relative to control
[2] = tested on: Tyrosine-protein kinase ABL1 (Homo sapiens), P00519 [F317L]; assay: Inhibition of phosphorylated ABL1 F317L mutant (unknown origin) assessed as residual activity at 100 nM by KINOMEscan analysis relative to control
[3] = target: Receptor tyrosine-protein kinase erbB-2 (Homo sapiens) (UniProt P04626); assay: Inhibition of ERBB2 (unknown origin) assessed as residual activity at 100 nM by KINOMEscan analysis relative to control
[4] = target: Fibroblast growth factor receptor 4 (Homo sapiens) (UniProt P22455); assay: Inhibition of FGFR4 (unknown origin) assessed as residual activity at 100 nM by KINOMEscan analysis relative to control
[5] = target: Tyrosine-protein kinase Fyn (Homo sapiens) (UniProt P06241); assay: Inhibition of FYN (unknown origin) assessed as residual activity at 100 nM by KINOMEscan analysis relative to control
[6] = target: T1, Inhibitor of nuclear factor kappa-B kinase subunit epsilon (Homo sapiens) (UniProt Q14164); assay: Inhibition of IKK-epsilon (unknown origin) assessed as residual activity at 100 nM by KINOMEscan analysis relative to control
T1 sequence (whole entry): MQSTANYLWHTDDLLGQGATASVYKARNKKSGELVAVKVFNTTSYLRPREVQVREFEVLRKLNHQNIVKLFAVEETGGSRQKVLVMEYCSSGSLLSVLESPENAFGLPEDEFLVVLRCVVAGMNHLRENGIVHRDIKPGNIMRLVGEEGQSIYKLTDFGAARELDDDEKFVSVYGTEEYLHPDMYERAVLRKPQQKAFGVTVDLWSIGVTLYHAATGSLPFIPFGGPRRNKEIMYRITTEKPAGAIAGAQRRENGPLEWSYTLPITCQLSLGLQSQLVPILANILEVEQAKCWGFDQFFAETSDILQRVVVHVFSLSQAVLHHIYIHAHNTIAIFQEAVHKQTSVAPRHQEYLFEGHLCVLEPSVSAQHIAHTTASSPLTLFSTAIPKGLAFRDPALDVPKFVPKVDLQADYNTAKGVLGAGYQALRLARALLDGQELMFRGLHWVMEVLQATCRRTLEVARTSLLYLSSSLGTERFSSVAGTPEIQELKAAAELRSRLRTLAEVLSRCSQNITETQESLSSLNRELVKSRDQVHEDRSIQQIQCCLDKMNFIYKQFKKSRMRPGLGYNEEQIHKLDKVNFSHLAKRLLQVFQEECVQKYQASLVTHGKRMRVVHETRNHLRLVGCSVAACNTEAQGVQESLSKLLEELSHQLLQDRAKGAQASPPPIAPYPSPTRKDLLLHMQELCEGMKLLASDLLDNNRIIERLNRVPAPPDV

[7] = target: Mast/stem cell growth factor receptor Kit (Homo sapiens) (UniProt P10721); assay: Inhibition of autoinhibited KIT (unknown origin) assessed as residual activity at 100 nM by KINOMEscan analysis relative to control
[8] = target: Serine/threonine-protein kinase 24 (Homo sapiens) (UniProt Q9Y6E0); assay: Inhibition of MST3 (unknown origin) assessed as residual activity at 100 nM by KINOMEscan analysis relative to control
[9] = target: Serine/threonine-protein kinase 38 (Homo sapiens) (UniProt Q15208); assay: Inhibition of NDR1 (unknown origin) assessed as residual activity at 100 nM by KINOMEscan analysis relative to control
[10] = target: Serine/threonine-protein kinase PAK 2 (Homo sapiens) (UniProt Q13177); assay: Inhibition of PAK2 (unknown origin) assessed as residual activity at 100 nM by KINOMEscan analysis relative to control
[11] = target: cAMP-dependent protein kinase catalytic subunit beta (Homo sapiens) (UniProt P22694); assay: Inhibition of PKAC-beta (unknown origin) assessed as residual activity at 100 nM by KINOMEscan analysis relative to control
[12] = target: Serine/threonine-protein kinase PLK3 (Homo sapiens) (UniProt Q9H4B4); assay: Inhibition of PLK3 (unknown origin) assessed as residual activity at 100 nM by KINOMEscan analysis relative to control
[13] = target: Ribosomal protein S6 kinase alpha-4 (Homo sapiens) (UniProt O75676); assay: Inhibition of N-terminal RPS6KA4 […] domain 1 (unknown origin) assessed as residual activity at 100 nM by KINOMEscan analysis relative to control
[14] = target: T2, Serine/threonine-protein kinase TBK1 (Homo sapiens) (UniProt Q9UHD2); assay: Inhibition of TBK1 (unknown origin) assessed as residual activity at 100 nM by KINOMEscan analysis relative to control
T2 sequence (whole entry): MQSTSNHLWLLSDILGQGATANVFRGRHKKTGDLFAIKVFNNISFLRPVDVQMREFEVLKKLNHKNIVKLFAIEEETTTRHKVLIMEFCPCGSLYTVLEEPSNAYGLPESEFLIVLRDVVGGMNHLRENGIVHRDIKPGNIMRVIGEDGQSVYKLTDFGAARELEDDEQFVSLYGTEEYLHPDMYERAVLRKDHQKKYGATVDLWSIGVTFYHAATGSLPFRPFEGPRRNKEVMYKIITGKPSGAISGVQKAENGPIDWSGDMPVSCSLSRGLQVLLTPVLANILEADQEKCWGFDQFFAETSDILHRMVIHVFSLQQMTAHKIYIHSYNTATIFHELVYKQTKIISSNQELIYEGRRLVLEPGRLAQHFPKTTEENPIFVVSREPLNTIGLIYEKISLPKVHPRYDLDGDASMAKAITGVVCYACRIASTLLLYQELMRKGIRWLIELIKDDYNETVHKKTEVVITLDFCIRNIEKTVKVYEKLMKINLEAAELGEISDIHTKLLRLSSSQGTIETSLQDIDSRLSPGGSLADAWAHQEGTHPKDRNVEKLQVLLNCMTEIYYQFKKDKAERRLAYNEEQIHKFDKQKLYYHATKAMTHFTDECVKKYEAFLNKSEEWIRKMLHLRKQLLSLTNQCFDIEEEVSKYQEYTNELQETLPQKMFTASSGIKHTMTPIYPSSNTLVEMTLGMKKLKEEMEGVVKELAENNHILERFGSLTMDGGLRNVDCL

Sequence of Ribosomal protein S6 kinase alpha-4 (Homo sapiens) (O75676 whole entry, looked up): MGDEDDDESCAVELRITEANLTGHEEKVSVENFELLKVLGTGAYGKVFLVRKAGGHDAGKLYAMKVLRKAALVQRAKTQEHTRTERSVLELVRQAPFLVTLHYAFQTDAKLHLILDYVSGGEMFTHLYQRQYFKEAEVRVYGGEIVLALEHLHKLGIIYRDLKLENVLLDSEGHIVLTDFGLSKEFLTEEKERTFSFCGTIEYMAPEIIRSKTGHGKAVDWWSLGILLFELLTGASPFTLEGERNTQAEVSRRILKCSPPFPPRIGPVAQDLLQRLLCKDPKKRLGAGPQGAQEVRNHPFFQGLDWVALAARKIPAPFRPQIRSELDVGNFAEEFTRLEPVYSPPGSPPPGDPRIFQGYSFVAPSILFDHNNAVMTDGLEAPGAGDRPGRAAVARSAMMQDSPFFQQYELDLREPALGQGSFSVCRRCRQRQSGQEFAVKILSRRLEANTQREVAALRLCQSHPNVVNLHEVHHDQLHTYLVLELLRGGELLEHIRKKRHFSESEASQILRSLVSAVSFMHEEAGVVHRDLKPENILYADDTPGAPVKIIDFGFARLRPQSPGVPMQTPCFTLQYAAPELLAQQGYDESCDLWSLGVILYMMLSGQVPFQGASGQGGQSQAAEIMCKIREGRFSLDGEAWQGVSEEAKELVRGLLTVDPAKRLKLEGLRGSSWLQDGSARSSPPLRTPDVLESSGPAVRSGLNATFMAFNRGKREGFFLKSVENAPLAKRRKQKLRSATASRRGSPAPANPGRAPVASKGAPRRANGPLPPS
Sequence of Serine/threonine-protein kinase 24 (Homo sapiens) (Q9Y6E0 whole entry, looked up): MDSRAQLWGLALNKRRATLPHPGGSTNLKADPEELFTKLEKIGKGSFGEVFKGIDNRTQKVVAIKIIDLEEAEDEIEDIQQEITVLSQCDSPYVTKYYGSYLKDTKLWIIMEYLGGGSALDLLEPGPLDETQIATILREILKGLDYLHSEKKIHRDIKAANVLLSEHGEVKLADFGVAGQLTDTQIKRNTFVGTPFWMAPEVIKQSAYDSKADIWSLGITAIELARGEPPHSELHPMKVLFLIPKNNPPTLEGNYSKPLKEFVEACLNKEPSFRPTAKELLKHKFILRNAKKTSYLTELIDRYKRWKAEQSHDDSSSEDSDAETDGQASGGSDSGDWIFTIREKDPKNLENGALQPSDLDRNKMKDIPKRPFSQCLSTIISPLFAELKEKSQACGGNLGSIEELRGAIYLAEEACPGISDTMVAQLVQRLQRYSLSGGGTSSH
Sequence of Receptor tyrosine-protein kinase erbB-2 (Homo sapiens) (P04626 whole entry): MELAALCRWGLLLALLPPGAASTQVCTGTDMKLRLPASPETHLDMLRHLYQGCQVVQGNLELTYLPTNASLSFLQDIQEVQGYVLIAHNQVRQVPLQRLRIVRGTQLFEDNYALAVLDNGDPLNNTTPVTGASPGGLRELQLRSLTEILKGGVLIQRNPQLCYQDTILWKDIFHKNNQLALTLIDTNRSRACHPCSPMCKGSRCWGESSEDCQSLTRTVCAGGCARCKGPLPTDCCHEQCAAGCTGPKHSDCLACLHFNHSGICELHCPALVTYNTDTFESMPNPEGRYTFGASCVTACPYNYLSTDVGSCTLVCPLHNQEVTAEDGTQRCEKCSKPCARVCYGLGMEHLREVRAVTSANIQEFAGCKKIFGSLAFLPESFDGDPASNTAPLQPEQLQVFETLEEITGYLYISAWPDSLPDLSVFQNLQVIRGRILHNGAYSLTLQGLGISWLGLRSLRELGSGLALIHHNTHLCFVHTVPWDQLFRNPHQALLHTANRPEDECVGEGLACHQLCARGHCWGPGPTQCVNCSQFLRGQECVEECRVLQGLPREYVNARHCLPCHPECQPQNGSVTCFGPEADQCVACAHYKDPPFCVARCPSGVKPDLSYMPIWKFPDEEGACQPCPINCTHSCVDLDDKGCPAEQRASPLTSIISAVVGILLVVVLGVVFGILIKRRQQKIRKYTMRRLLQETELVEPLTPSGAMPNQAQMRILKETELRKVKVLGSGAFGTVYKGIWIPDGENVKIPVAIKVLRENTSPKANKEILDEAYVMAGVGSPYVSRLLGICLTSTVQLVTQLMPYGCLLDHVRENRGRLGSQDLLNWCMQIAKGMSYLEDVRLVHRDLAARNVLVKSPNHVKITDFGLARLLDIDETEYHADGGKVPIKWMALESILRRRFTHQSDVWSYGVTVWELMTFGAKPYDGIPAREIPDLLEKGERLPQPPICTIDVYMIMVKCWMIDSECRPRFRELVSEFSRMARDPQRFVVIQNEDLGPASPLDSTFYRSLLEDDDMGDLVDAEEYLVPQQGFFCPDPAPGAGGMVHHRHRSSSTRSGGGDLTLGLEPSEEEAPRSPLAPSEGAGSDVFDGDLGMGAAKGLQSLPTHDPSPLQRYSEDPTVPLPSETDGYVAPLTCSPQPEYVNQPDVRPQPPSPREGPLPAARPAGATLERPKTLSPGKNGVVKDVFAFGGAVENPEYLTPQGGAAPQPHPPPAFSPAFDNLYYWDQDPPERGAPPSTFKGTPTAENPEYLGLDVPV
Sequence of Fibroblast growth factor receptor 4 (Homo sapiens) (P22455 22-802 limits assumed): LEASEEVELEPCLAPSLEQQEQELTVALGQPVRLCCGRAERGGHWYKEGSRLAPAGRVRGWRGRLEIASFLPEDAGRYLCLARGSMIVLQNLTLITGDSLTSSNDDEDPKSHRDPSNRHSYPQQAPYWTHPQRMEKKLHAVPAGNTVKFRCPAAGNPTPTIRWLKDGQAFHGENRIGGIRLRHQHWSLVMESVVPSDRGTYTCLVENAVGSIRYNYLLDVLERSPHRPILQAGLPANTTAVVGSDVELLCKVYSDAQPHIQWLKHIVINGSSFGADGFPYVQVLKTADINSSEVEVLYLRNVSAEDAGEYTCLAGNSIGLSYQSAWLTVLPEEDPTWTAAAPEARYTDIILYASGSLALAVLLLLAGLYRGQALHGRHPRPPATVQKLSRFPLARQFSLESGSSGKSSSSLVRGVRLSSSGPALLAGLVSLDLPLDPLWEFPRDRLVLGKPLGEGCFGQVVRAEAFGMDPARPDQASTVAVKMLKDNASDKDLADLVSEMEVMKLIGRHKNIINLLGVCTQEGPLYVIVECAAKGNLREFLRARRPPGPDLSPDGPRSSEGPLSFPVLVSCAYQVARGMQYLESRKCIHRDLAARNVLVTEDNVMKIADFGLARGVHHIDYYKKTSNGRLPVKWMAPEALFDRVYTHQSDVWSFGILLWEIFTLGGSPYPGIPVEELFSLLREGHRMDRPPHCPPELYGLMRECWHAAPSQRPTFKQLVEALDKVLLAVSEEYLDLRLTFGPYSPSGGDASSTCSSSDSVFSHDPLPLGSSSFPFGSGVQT
Sequence of Serine/threonine-protein kinase 38 (Homo sapiens) (Q15208 2-465 limits assumed): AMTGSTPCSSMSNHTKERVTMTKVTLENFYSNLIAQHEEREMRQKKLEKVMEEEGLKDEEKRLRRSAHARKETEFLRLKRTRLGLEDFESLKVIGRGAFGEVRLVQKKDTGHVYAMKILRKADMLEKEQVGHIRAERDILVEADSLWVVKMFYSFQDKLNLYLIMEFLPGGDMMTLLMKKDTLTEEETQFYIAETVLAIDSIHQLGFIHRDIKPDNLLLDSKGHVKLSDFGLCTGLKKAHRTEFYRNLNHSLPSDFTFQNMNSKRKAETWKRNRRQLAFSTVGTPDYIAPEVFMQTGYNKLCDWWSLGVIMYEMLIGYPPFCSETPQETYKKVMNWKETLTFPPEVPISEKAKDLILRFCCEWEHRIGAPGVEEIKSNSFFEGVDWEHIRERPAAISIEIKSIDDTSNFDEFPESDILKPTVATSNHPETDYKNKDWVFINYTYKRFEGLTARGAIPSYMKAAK
Sequence of Tyrosine-protein kinase ABL1 (Homo sapiens), P00519 [F317L] (P00519 whole entry F317L): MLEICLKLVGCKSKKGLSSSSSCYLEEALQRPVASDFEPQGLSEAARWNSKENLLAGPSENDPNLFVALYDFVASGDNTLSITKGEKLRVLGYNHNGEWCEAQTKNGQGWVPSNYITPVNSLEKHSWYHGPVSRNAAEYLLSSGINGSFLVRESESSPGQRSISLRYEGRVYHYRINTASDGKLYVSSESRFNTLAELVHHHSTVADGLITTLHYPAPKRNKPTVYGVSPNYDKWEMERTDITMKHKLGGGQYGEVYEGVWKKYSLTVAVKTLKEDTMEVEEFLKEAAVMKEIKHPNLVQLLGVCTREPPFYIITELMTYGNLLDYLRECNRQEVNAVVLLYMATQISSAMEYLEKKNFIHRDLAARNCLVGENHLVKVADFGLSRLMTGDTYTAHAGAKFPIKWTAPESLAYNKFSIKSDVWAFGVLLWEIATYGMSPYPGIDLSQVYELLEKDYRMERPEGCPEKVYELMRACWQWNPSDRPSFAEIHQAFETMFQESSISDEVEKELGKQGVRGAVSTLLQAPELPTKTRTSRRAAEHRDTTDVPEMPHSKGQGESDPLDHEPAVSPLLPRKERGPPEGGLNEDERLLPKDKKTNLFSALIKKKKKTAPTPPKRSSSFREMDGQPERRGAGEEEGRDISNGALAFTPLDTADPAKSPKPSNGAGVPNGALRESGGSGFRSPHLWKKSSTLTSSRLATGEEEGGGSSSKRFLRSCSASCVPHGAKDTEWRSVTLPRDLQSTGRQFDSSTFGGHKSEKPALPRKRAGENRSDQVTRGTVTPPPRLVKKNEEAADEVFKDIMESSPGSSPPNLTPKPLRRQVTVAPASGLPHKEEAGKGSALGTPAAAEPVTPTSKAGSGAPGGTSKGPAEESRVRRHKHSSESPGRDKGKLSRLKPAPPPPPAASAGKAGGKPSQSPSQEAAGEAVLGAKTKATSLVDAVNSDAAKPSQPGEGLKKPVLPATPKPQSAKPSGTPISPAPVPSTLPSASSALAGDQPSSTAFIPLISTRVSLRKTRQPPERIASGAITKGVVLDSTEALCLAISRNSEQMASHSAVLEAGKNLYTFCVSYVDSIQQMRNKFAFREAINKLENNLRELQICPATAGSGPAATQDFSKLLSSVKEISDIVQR

Q: Which results are given for `COc1cc2ncnc(N[C@H](C)c3cccc4ccccc34)c2cc1OC`?
A: Activity [1]: 74%; Activity [2]: 86%; Activity [3]: 84%; Activity [4]: 76%; Activity [5]: 85%; Activity [6]: 100%; Activity [7]: 91%; Activity [8]: 99%; Activity [9]: 80%; Activity [10]: 100%; Activity [11]: 88%; Activity [12]: 83%; Activity [13]: 100%; Activity [14]: 96%
